The record followed here is paper PMC12238238, “Identification of gut bacteria reductases that biotransform steroid hormones” (Nature Communications, 2025).

One test concerns the target T1, baiH ([Clostridium] scindens, UniProt P32370).
T1 construct: expressed in E. coli, whole-cell biotransformation
T1 sequence (P32370 1-661): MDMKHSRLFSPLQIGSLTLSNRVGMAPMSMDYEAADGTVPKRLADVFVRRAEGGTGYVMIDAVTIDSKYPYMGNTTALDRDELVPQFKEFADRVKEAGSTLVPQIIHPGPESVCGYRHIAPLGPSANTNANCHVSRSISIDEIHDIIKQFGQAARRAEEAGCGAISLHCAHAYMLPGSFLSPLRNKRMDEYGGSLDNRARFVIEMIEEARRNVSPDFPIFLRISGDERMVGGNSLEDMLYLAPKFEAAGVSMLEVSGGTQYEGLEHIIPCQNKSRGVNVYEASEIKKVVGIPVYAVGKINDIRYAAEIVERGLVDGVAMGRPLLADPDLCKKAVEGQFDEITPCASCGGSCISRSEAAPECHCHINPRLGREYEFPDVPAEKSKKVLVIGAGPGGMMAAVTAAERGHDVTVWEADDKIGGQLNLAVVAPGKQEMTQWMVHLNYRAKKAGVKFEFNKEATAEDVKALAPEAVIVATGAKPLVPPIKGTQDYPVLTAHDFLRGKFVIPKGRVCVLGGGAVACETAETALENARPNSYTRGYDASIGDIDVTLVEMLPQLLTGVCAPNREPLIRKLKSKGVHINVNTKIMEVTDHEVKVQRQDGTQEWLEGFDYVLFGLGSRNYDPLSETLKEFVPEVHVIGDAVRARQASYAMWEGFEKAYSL
In words: LC-MS of products in E. coli expressing the gene. In kind it is cell-based. The note with it: whole E. coli cells, anaerobic, 1 mg/100 mL steroid, 48 h, 37 °C; product progesterone.

The target of test [1] is T2, ci2350 (Δ4-3-ketosteroid 5β-reductase).
T2 construct: recombinant in E. coli, Ni HisTrap purified (pET28a/kanamycin); mutants assayed in E. coli cells
The test can be described thus: isothermal titration calorimetry. In kind it is binding, [Clostridium] innocuum. The note with it: 0.1 M sodium phosphate, 0.2 M NaCl, 20 mM BME, 0.5 mM CHAPS, pH 6.5, 25 °C; independent model, single site.

The next test has as its target T3, dw0523 (3β-HSDH/I) (Dysosmobacter welbionis, UniProt A0A4D7AXI1).
T3 construct: gene EIO64_02590; expressed in E. coli, whole-cell biotransformation; separate (unfused) 3β-HSDH/I gene
T3 sequence (A0A4D7AXI1 1-497): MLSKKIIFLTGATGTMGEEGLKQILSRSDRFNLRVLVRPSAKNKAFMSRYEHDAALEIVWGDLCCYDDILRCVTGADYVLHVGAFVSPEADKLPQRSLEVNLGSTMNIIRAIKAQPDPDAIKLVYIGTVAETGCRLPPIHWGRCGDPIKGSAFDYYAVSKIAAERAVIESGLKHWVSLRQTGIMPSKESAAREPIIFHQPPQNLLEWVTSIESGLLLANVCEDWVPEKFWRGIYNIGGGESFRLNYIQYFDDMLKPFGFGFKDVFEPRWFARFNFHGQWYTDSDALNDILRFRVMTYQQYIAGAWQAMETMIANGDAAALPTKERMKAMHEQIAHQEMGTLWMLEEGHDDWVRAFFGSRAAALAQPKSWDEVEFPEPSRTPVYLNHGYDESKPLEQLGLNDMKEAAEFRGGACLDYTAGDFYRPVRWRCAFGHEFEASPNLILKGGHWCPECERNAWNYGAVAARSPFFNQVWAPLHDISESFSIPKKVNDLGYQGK
In words: LC-MS of products in E. coli expressing the gene. The note with it: whole E. coli cells, anaerobic, 1 mg/100 mL steroid, 48 h, 37 °C; product progesterone. In kind it is cell-based.

Another test addresses T4, baiCD ([Clostridium] scindens, UniProt P19410).
T4 construct: expressed in E. coli, whole-cell biotransformation
T4 sequence (P19410 1-639): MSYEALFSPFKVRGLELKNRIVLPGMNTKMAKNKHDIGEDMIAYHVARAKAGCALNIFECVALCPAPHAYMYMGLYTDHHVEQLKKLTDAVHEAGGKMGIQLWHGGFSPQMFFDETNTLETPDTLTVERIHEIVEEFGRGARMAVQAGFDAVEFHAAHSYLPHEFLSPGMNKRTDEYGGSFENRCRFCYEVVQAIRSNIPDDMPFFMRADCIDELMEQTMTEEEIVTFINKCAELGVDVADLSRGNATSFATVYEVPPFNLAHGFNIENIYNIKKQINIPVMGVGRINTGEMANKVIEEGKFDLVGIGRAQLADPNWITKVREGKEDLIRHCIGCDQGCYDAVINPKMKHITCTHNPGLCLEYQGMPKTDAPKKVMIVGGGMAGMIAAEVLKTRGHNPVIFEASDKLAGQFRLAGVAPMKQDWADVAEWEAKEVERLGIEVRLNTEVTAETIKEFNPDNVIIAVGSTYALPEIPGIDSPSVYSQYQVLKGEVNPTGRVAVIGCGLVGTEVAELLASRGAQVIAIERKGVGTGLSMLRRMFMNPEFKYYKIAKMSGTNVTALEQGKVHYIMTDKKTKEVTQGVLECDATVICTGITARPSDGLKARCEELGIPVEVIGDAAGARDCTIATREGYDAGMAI
In words: LC-MS of products in E. coli expressing the gene. The format is cell-based. Conditions: whole E. coli cells, anaerobic, 1 mg/100 mL steroid, 48 h, 37 °C; product 5β-dihydroprogesterone.

For the molecule `CC(=O)[C@H]1CC[C@H]2[C@@H]3C=CC4=CC(=O)CC[C@]4(C)[C@H]3CC[C@]12C` [6-dehydroprogesterone], the “LC-MS of products in E. coli expressing the gene” value (“LC-MS of products” below) on baiH is “only partial conversion of the substrate by C. scindens baiH”. For the same molecule, the Kd in test [1] worked out at 594 nM.
Molecule `C[C@]12CCC(=O)C=C1CC[C@@H]1[C@@H]2C(=O)C[C@@]2(C)[C@H]1CC[C@]2(O)C(=O)CO` [cortisone] came in with a Kd in test [1] of 759 nM. This counts as sub-micromolar.
With `C[C@]12CCC(=O)C=C1CC[C@@H]1[C@@H]2[C@@H](O)C[C@@]2(C)[C@H]1CC[C@]2(O)C(=O)CO` [hydrocortisone], in test [1], the Kd amounted to 668 nM.
Consider `CC(=O)[C@H]1CC[C@H]2[C@@H]3CC=C4C[C@@H](O)CC[C@]4(C)[C@H]3CC[C@]12C` [pregnenolone], for which the “LC-MS of products” value on dw0523 (3β-HSDH/I) was “with dw0523 producing only progesterone”.
For `CC(=O)[C@H]1CC[C@H]2[C@@H]3CCC4=CC(=O)CC[C@]4(C)[C@H]3CC[C@]12C` [progesterone], the “LC-MS of products” value on baiCD is recorded as “baiCD had limited, but detectable, reduction of progesterone”. In addition, the Kd in test [1] is 432 nM.

One may read the Kd as the free concentration of one partner at which half of the binding sites on the other are occupied at equilibrium, for simple one-to-one binding. A lower Kd goes with a tighter complex.
